From patent US9850256B2, “Antibacterial basic biaromatic derivatives with aminoalkoxy substitution” (priority 2014, dated 2017)
In brackets after ≈: the same amount, converted by molar mass.

Tests used:
Experiment in all cases: Bacterial growth minimal inhibitory concentration (microdilution, cation-adjusted Mueller-Hinton Broth)
[1] = system: S. aureus A798; format: cell-based, Staphylococcus aureus; details: Staphylococcus aureus, A798; multiply-resistant strain (methicillin- and quinolone-resistant)
Summary of the method: (§1)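 Broth microdilution in cation-adjusted Mueller-Hinton Broth per CLSI M7-A7; MICs in mg/L. S. aureus A798 is methicillin- and quinolone-resistant, K. pneumoniae T6474 penicillin-, cephalosporin- and quinolone-resistant; E. coli ATCC25922 and P. aeruginosa ATCC 27853 are quinolone-sensitive.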

[2] = system: E. coli ATCC25922; format: cell-based; details: Escherichia coli, ATCC25922; quinolone-sensitive strain
Summary of the method: as §1

[3] = system: P. aeruginosa ATCC 27853; format: cell-based, Pseudomonas aeruginosa; details: Pseudomonas aeruginosa, ATCC27853; quinolone-sensitive strain
Summary of the method: as §1

[4] = system: K. pneumoniae T6474; format: cell-based, Klebsiella pneumoniae; details: Klebsiella pneumoniae, T6474; multiply-resistant strain (penicillin-, cephalosporin- and quinolone-resistant)
Summary of the method: as §1

Compound | MIC [1] | MIC [2] | MIC [3] | MIC [4]
NCCNCCOc1cccc(-c2cccc(CNCC[C@H]3CN(c4ccc5c(n4)NC(=O)CO5)C(=O)O3)c2)n1 [Example $156, 6-{(S)-5-[2-(3-{6-[2-(2-amino-ethylamino)-ethoxy]-pyridin-2-yl}-benzylamino)-ethyl]-2-oxo-oxazolidin-3-yl}-4H-pyrido[3,2-b][1,4]oxazin-3-one] | 1 µg/mL (≈ 1.83 µM) | 1 µg/mL (≈ 1.83 µM) | 0.5 µg/mL (≈ 0.913 µM) | 2 µg/mL (≈ 3.65 µM)
NCCOc1ccnc(-c2ccnc(CNCC[C@H]3CN(c4ccc5c(n4)NC(=O)CO5)C(=O)O3)c2)c1 [Example $157, 6-[(S)-5-(2-{[4-(2-amino-ethoxy)-[2,4′]bipyridinyl-2′-ylmethyl]-amino}-ethyl)-2-oxo-oxazolidin-3-yl]-4H-pyrido[3,2-b][1,4]oxazin-3-one] | 8 µg/mL (≈ 15.8 µM) | 4 µg/mL (≈ 7.91 µM) | 1 µg/mL (≈ 1.98 µM) | 16 µg/mL (≈ 31.6 µM)
NCCOc1cncc(-c2ccnc(CNCC[C@H]3CN(c4ccc5c(n4)NC(=O)CO5)C(=O)O3)c2)n1 [Example $158, 6-{(S)-5-[2-({4-[6-(2-amino-ethoxy)-pyrazin-2-yl]-pyridin-2-ylmethyl}-amino)-ethyl]-2-oxo-oxazolidin-3-yl}-4H-pyrido[3,2-b][1,4]oxazin-3-one] | 4 µg/mL (≈ 7.9 µM) | 8 µg/mL (≈ 15.8 µM) | 2 µg/mL (≈ 3.95 µM) | 16 µg/mL (≈ 31.6 µM)
NCCOc1cncc(-c2ccnc(CNCC[C@H]3CN(c4ccc5c(n4)NC(=O)CO5)C(=O)O3)c2)c1 [Example $159, 6-[(S)-5-(2-{[5-(2-amino-ethoxy)-[3,4′]bipyridinyl-2′-ylmethyl]-amino}-ethyl)-2-oxo-oxazolidin-3-yl]-4H-pyrido[3,2-b][1,4]oxazin-3-one] | 8 µg/mL (≈ 15.8 µM) | 16 µg/mL (≈ 31.6 µM) | 4 µg/mL (≈ 7.91 µM) | 8 µg/mL (≈ 15.8 µM)
NCCOc1nccc(-c2cccc(CNCC[C@H]3CN(c4ccc5c(n4)NC(=O)CO5)C(=O)O3)c2)n1 [Example $160, 6-[(S)-5-(2-{3-[2-(2-amino-ethoxy)-pyrimidin-4-yl]-benzylamino}-ethyl)-2-oxo-oxazolidin-3-yl]-4H-pyrido[3,2-b][1,4]oxazin-3-one] | 4 µg/mL (≈ 7.91 µM) | 2 µg/mL (≈ 3.96 µM) | 1 µg/mL (≈ 1.98 µM) | 8 µg/mL (≈ 15.8 µM)
COc1cc(OCCN)cc(-c2cccc(CNCC[C@H]3CN(c4ccc5c(n4)NC(=O)CO5)C(=O)O3)c2)n1 [Example $161, 6-[(S)-5-(2-{3-[4-(2-amino-ethoxy)-6-methoxy-pyridin-2-yl]-benzylamino}-ethyl)-2-oxo-oxazolidin-3-yl]-4H-pyrido[3,2-b][1,4]oxazin-3-one] | 0.5 µg/mL (≈ 0.935 µM) | 0.5 µg/mL (≈ 0.935 µM) | 1 µg/mL (≈ 1.87 µM) | 1 µg/mL (≈ 1.87 µM)
COc1cc(OCCN)cc(-c2ccnc(CNCC[C@H]3CN(c4ccc5c(n4)NC(=O)CO5)C(=O)O3)c2)n1 [Example $162, 6-[(S)-5-(2-{[4-(2-amino-ethoxy)-6-methoxy-[2,4′]bipyridinyl-2′-ylmethyl]-amino}-ethyl)-2-oxo-oxazolidin-3-yl]-4H-pyrido[3,2-b][1,4]oxazin-3-one] | 1 µg/mL (≈ 1.87 µM) | 1 µg/mL (≈ 1.87 µM) | 1 µg/mL (≈ 1.87 µM) | 1 µg/mL (≈ 1.87 µM)
CNCCOc1cccc(-c2cccc(CNCC[C@H]3CN(c4ccc5c(n4)NC(=O)CO5)C(=O)O3)c2)n1 [Example $163, 6-[(S)-5-(2-{3-[6-(2-methylamino-ethoxy)-pyridin-2-yl]-benzylamino}-ethyl)-2-oxo-oxazolidin-3-yl]-4H-pyrido[3,2-b][1,4]oxazin-3-one] | 0.5 µg/mL (≈ 0.964 µM) | 0.5 µg/mL (≈ 0.964 µM) | 0.5 µg/mL (≈ 0.964 µM) | 2 µg/mL (≈ 3.86 µM)
CNCCOc1cncc(-c2cccc(CNCC[C@H]3CN(c4ccc5c(n4)NC(=O)CO5)C(=O)O3)c2)n1 [Example $164, 6-[(S)-5-(2-{3-[6-(2-methylamino-ethoxy)-pyrazin-2-yl]-benzylamino}-ethyl)-2-oxo-oxazolidin-3-yl]-4H-pyrido[3,2-b][1,4]oxazin-3-one] | 0.5 µg/mL (≈ 0.962 µM) | 1 µg/mL (≈ 1.92 µM) | 0.5 µg/mL (≈ 0.962 µM) | 1 µg/mL (≈ 1.92 µM)
